Test results as given in article PMC6862250, “Lipophilicity Determination of Quaternary (Fluoro)Quinolones by Chromatographic and Theoretical Approaches” (International Journal of Molecular Sciences, 2019).

Columns and labels:
Type in all cases: physicochemical
[1] = RP-TLC lipophilicity, silica gel C18, methanol-water; conditions: for C 0: RP-TLC silica gel C18, C0 = −RM^0/b; for PC1: RP-TLC silica gel C18, first principal component of RM values, contains 86.92% of information; for mRM: RP-TLC silica gel C18, mean value of RM; for R M ^0: RP-TLC silica gel C18, methanol-water 40 to 70% (v/v), intercept of Soczewiński–Wachtmeister equation; for b: RP-TLC silica gel C18, slope of Soczewiński–Wachtmeister equation
Procedure: (§1) The ready-to-use TLC glass plates covered by octadecyl(C18)- and octyl(C8)-modified TLC silica layers were purchased from Merck (Darmstadt, Germany). Stock solutions (5 µL) of the analytes were spotted manually on the plates with the use of a micropipette from Brand (Wertheim, Germany). The mobile phases were prepared by mixing appropriate volumes of pure organic solvents and water (in step gradient by 10% (v/v)), in the following proportions: (a) methanol–water ranging from 30 to 70% (v/v), in the case of C8-bonded silica gel stationary phase; and (b) methanol–water ranging from 40 to 70% (v/v), in the case of C18-bonded silica gel stationary phase.
(§2) Before analysis, the chromatographic chamber (Twin Trough Chambers from CAMAG Philadelphia, USA) was saturated for 20 min. All TLC experiments were performed at room temperature (22 ± 2 °C). Chromatograms were developed using the ascending technique to a distance of 8 cm. The investigated substances were visualized under UV light at λ = 366 nm by CAMAG UV Lamp 4 and the Viewing Box 4 (Philadelphia, USA). […] The obtained retardation factors (RF) were collected in the Supplementary data sheets. The retention parameter, RM, was calculated for each compound according to the Bate-Smith and Westall formula: (7) RM=log(1/RF−1) and listed in Table S2. Next, the Soczewiński–Wachtmeister’s equation: RM = RM^0 + bC(8) was used in order to determine the basic lipophilic RP-TLC parameter RM^0 as well as commonly used hydrophobic constants m. Soczewiński–Wachtmeister’s equation presented a linear relationship between concentration of the organic solvent in mobile phase (C) and RM value. Moreover, mean value of RM was used for lipophilicity assessments.
(§3) Furthermore, C0 RP-TLC lipophilicity parameter, introduced by Bieganowska, has been calculated according to the formula:(9) C0=−RM^0/b.
(§4) The C0 parameter corresponds to the parameter φ0, previously proposed for the HPLC. This parameter relates to the concentration of the organic component in the mobile phase for which the distribution of the analyzed substance between the mobile and stationary phase is equal (1:1).
(§5) Also, the principal component analysis (PCA) was applied in order to extract information regarding the lipophilicity of solutes and formulate them as the first principal component (PC1). Calculation data matrixes included RM values of solutes for each modifier concentration in the mobile phase.

[2] = RP-TLC lipophilicity, silica gel C8, methanol-water; conditions: for C 0: RP-TLC silica gel C8, C0 = −RM^0/b; for PC1: RP-TLC silica gel C8, first principal component of RM values, contains 83.57% of information; for mRM: RP-TLC silica gel C8, mean value of RM; for R M ^0: RP-TLC silica gel C8, methanol-water 30 to 70% (v/v), intercept of Soczewiński–Wachtmeister equation; for b: RP-TLC silica gel C8, slope of Soczewiński–Wachtmeister equation
Procedure: as §1, §2, §3, §4, §5

[3] = MEKC lipophilicity (SDS micelles, pH 7.4); conditions: 50 mM SDS, HEPES/TRIS buffer pH 7.4, 25 °C
Procedure: All MEKC experiments were carried out with a P/ACE MDQ plus system (Sciex, Framingham, MA, USA) equipped with photodiode array detector (PDA) and controlled by 32 Karat software (version 10.2). The uncoated fused silica capillaries (50 µm i.d., Polymicro Technologies, West Yorkshire, UK) of 60 cm total length and 50.2 cm effective length were used. Prior to analysis, the capillary was rinsed with 0.1 M NaOH for 30 min, ultrapure water for 10 min, and background electrolyte (BGE) for 30 min. After each analysis, the capillary was conditioned with BGE for 2 min. The applied pressure for all rinsing operations was 345 kPa. The analytes were dissolved in BGE at concentration of 100 µg/mL with addition of quinine (micelles marker). As electroosmotic flow (EOF) marker, DMSO was used. The samples were hydrodynamically injected at 35 kPa for 5 s. The separations were performed by applying voltage of 20 kV with positive polarity and constant temperatures at 25 ± 0.1 °C. The BGE consisted of aqueous solution of 50 mM SDS and 120 mM HEPES /100 mM TRIS buffer of pH 7.4. The BGE was prepared each working day by dilution of stock solution. Detection was carried out at 200 and 280 nm with 8 Hz probing frequency. The logarithm of retention factor logk was calculated according to the equation introduced by Terabe and co-workers:(10) logkMEKC=log(tR−tEOF/tEOF(1−tR/tMC)) The established logk parameters are summarized in Table 2.

| SMILES | C 0 [1] | PC1 [1] | mRM [1] | R M ^0 [1] | b [1] | C 0 [2] | PC1 [2] | mRM [2] | R M ^0 [2] | b [2] | logk [3] | logk ([3]; listed as pipemidic acid) | logk ([3]; listed as enoxacin) |
| --- | --- | --- | --- | --- | --- | --- | --- | --- | --- | --- | --- | --- | --- |
| COc1c(N2CC3CCC[N+]4(CN5C(=N4)C(C(=O)O)=Cc4ccccc45)C3C2)c(F)cc2c(=O)c(C(=O)O)cn(C3CC3)c12.[Cl-] (stereo not shown) [Compound 15] | 0.84 | −1.12 | 1.24 | 3.56 | −4.21 | 0.91 | −3.52 | 1.19 | 2.63 | −2.88 | −0.250 |  |  |
| CCn1cc(C(=O)O)c(=O)c2cc(F)c(N3CCNC(C)C3)c(F)c21 (stereo not shown) [Compound 17, reference compound] | 1.15 | −1.08 | 1.22 | 2.33 | −2.03 | 1.34 | −4.09 | 1.29 | 2.06 | −1.54 | 0.077 |  |  |
| CCn1cc(C(=O)O)c(=O)c2cc(F)c(N3CCNCC3)cc21 [Compound 18, reference compound] | 1.24 | −2.34 | 1.40 | 2.54 | −2.06 | 1.27 | −5.56 | 1.47 | 2.43 | −1.90 | 0.103 |  |  |
| CCn1cc(C(=O)O)c(=O)c2cnc(N3CCNCC3)nc21 [Compound 19, pipemidic acid, reference compound] | 1.35 | −1.24 | 1.24 | 2.39 | −1.78 | 1.65 | −3.91 | 1.30 | 1.87 | −1.13 | −0.170 | −0.1697 |  |
| COc1c(N2CCNC(C)C2)c(F)cc2c(=O)c(C(=O)O)cn(C3CC3)c12 (stereo not shown) [Compound 21, reference compound] | 1.06 | −1.63 | 1.31 | 2.69 | −2.55 | 0.95 | −4.29 | 1.26 | 2.68 | −2.83 | 0.101 |  |  |

Results, then the compound that gave them:

| C 0 [1] | PC1 [1] | mRM [1] | R M ^0 [1] | b [1] | C 0 [2] | PC1 [2] | mRM [2] | R M ^0 [2] | b [2] | logk [3] | logk ([3]; listed as pipemidic acid) | logk ([3]; listed as enoxacin) | SMILES |
| --- | --- | --- | --- | --- | --- | --- | --- | --- | --- | --- | --- | --- | --- |
| 0.99 | −1.40 | 1.28 | 2.85 | −2.88 | 1.07 | −3.81 | 1.21 | 2.27 | −2.13 | 0.116 |  |  | C[C@@H]1CN(c2c(F)c(N)c3c(=O)c(C(=O)O)cn(C4CC4)c3c2F)C[C@H](C)N1 [Compound 20, reference compound] |
| 1.37 | −3.86 | 1.62 | 2.70 | −1.98 | 1.23 | −5.38 | 1.45 | 2.45 | −2.00 | 0.156 |  | 0.1564 | CCn1cc(C(=O)O)c(=O)c2cc(F)c(N3CCNCC3)nc21 [Compound 23, enoxacin, reference compound] |
